{
  "source": "paper PMC5515887",
  "about": "“Ruthenium-conjugated chrysin analogues modulate platelet activity, thrombus formation and haemostasis with enhanced efficacy” (Scientific Reports, 2017)",
  "key": {"[1]": {"tested_on": "human platelet-rich plasma (PRP)", "assay": "CRP-XL-induced platelet aggregation in human platelet-rich plasma (optical aggregometry)", "format": "cell-based", "conditions": "PRP, CRP-XL 0.5 μg/mL", "procedure": "Therefore, to determine the effects of various concentrations of chrysin and its derivatives in the presence of plasma proteins, aggregation assays were performed using human platelet-rich plasma (PRP) and 0.5 μg/mL CRP-XL.\nFigure 3 Impact of chrysin and its derivatives on platelet activation in platelet-rich plasma. […] The platelet aggregation was monitored for 5 minutes. The traces shown are representative of three separate experiments.\n(§1) The preparation of human platelets and aggregation assays were performed using standard protocols as described by us previously, [16]. Briefly, human blood was collected in 3.2% citrate containing vacutainers via venepuncture from healthy, aspirin-free individuals with informed consent in accordance with the methods approved by the University of Reading Research Ethics Committee. All methods were performed in accordance with the relevant institutional and national guidelines and regulations. Blood samples were centrifuged at 102 g for 20 minutes at room temperature to separate the PRP, which was used in aggregation, flow cytometry, static platelet adhesion, calcium mobilisation and clot retraction assays. For the preparation of washed platelets, 50 mL of blood samples were mixed with 7.5 mL of ACD (acid citrate dextrose) (20 g/L glucose, 25 g/L sodium citrate and 15 g/L citric acid) and centrifuged at 102 g for 20 minutes at room temperature. The PRP was carefully aspirated from the other blood cells prior to mixing with 3 mL of ACD and centrifuging at 1413 g for 10 minutes at room temperature. The resulting platelet pellet was re-suspended in modified Tyrodes-HEPES buffer (2.9 mM KCl, 134 mM NaCl, 0.34 mM Na2HPO4.12H20, 1 mM MgCl2, 12 mM NaHCO3, 20 mM HEPES, pH 7.3) and washed by centrifuging again at 1413 g for 10 minutes. The resulting platelet pellet was suspended in modified Tyrodes-HEPES buffer at a density of 4 × 10^8 cells/mL for aggregation, dense granule secretion, cellular uptake studies and calcium mobilisation assays. Human platelet aggregation was performed using CRP-XL as an agonist in the presence and absence of various concentrations of chrysin and its synthetic derivatives by optical aggregometry. A vehicle control [DMSO at a concentration of less than 0.1% (v/v)] was included in all the experiments. Dense granule secretion in platelets was determined by measuring the ATP release using the luciferin-luciferase reagent by lumi-aggregometry (Chrono-Log, USA). SDS-PAGE and immunoblotting analysis were performed using standard protocols. The rabbit anti-phospho-specific antibodies for human AKT pS473, FAK pY397 and Src pY527 were obtained from Abcam, UK and rabbit anti-human 14-3-3ζ (Santa Cruz Biotechnology, USA) was used to detect protein 14-3-3ζ as a loading control in immunoblot assays. The Cy5-conjugated goat anti-rabbit IgG (Life technologies, UK) was used as the secondary antibody."}, "[2]": {"tested_on": "human washed platelets", "assay": "CRP-XL-induced aggregation of human washed platelets (optical aggregometry)", "format": "cell-based", "conditions": "CRP-XL 0.5 μg/mL", "procedure": "To determine the effects of chrysin and thio-chrysin and their Ru-complexes in the modulation of platelet activation, aggregation assays were performed using cross-linked collagen-related peptide (CRP-XL) as a platelet agonist, by optical aggregometry. Firstly, to determine the effects of chrysin and its derivatives on isolated platelets, aggregation assays were performed using human washed platelets (devoid of plasma proteins and other blood cells).\nFigure 2 Effects of chrysin and its derivatives in washed platelet aggregation. […] The aggregation traces shown are representative of three separate experiments.\nas §1"}, "[3]": {"tested_on": "outside-in signalling by integrin αIIbβ3", "assay": "Clot retraction assay (outside-in signalling by integrin αIIbβ3)", "format": "cell-based, human", "conditions": "PRP; 50 μM compound; 1 U/mL thrombin; three hours", "procedure": "R represents ‘resting’ platelets.\nFollowing fibrinogen binding, integrin αIIbβ3 triggers signalling into the platelets in order to induce clot retraction and promote wound healing. This also represents a late downstream signalling event in the platelet activation process. To determine whether chrysin and its derivatives affect outside-in signalling by integrin αIIbβ3, a clot retraction assay was performed. […] At three hours, the clot obtained with the vehicle control [0.1% (v/v) DMSO] retracted to around 50 mg.\nPRP (200 µL) was mixed with 5 µL of red blood cells and the final volume was made to 950 µL with modified Tyrodes-HEPES buffer in the presence and absence of various concentrations of chrysin or its synthetic derivatives. Clot formation was initiated by adding 1 U/mL (50 µL) thrombin. A glass capillary was placed in middle of the tube and the clot retraction was observed over a period of 3 hours at room temperature. Clot weight was measured as a marker for clot retraction after 3 hours."}, "[4]": {"tested_on": "α-granule secretion in platelets", "assay": "P-selectin exposure by flow cytometry (marker for α-granule secretion)", "format": "cell-based, human", "conditions": "PRP; CRP-XL 0.5 μg/mL", "procedure": "Platelets primarily contain two types of granules (α- and dense granules) and the activation of platelets releases the granule contents to the external environment, where they play important roles in the stimulation of additional platelets and their recruitment to the growing thrombus. […] However, chrysin affected α-granule secretion only at a minimum concentration of 50 μM in platelets.\nFigure 5 Chrysin and its derivatives affect granule secretion in platelets. […] The level of P-selectin (as a marker for α-granule secretion) was quantified using PECy5-labelled anti-human P-selectin antibodies by flow cytometry. […] R represents ‘resting’ platelets. […] Platelets were then activated with 0.5 μg/mL CRP-XL and the ATP release was monitored for 5 minutes by lumi-aggregometry. The traces shown are representative of three separate experiments."}, "[5]": {"tested_on": "inside-out signalling to integrin αIIbβ3", "conditions": "PRP; CRP-XL 0.5 μg/mL", "experimental": "The level of fluorescence obtained with vehicle control was taken as 100% to calculate the extent of inhibition in chrysin and its derivatives-treated samples. R represents ‘resting’ platelets. Cumulative data represent mean ± S.D. (n = 4). […] Following incubation, clotting was initiated by the addition of 1 U/mL thrombin and the clot retraction was monitored for three hours. The remaining clot weight at three hours was measured to analyse the extent of retraction process. The image shown on the right is representative of four separate experiments. *Indicates significance with respect to controls and ^#indicates significance with respect to the respective chrysin concentrations; p values shown (*^,# p < 0.05, **^,## p < 0.01 and ***^,### p < 0.001) are as calculated by one-way ANOVA using Graphpad Prism.\nThe platelets (PRP) were treated with a vehicle control [0.1% (v/v) DMSO] or with different concentrations of chrysin and its synthetic derivatives prior to activation with CRP-XL (0.5 µg/mL). The levels of fibrinogen binding and P-selectin exposure were measured using FITC-labelled anti-human fibrinogen antibodies (Dako, UK) and PECy5-labelled CD62P antibodies (BD Biosciences, UK), respectively. The median fluorescence intensity was used to assess the levels of fibrinogen binding and P-selectin exposure on the platelet surface. The level of fluorescence obtained with the vehicle control was taken as 100% when compared with the treated samples."}},
  "data": [
    {"molecule": "Cc1ccc(C(C)C)cc1.Cc1ccc(C(C)C)cc1.[Cl-].[Cl-].[Cl-].[Cl-].[Ru+2].[Ru+2]", "note": "[Ru-Cl, bis [dichlorido (η^6-p-cymene)] ruthenium(II), reference compound]", "values": [
      {"measurement": "effect on platelet aggregation in PRP", "setting": "[1]", "result": "failed to show any inhibitory effects"},
      {"measurement": "effect on CRP-XL-induced platelet aggregation in washed platelets", "setting": "[2]", "result": "failed to affect platelet aggregation"}
    ]},
    {"molecule": "Oc1cc(O)c2c(=S)cc(-c3ccccc3)oc2c1", "note": "[thio-chrysin]", "values": [
      {"measurement": "effect on clot retraction", "setting": "[3]", "result": "significant inhibitory effect"},
      {"measurement": "effect on CRP-XL-induced platelet aggregation in washed platelets", "setting": "[2]", "result": "no significant differences"},
      {"measurement": "concentrations that significantly inhibit α-granule secretion", "setting": "[4]", "result": "≥ 25", "unit": "µM"}
    ]},
    {"molecule": "chlorido [(5-oxo-κO)-7-hydroxy-(2-phenyl)-4H-chromen-4-onato-κO] (η6-p-cymene)ruthenium(II) [Ru-chrysin]", "values": [
      {"measurement": "effect on platelet aggregation at lower concentrations", "setting": "[1]; 6.25 μM and 12.5 μM compound", "result": "did not significantly affect the platelet aggregation"},
      {"measurement": "effect on CRP-XL-induced platelet aggregation in washed platelets", "setting": "[2]", "result": "inhibited CRP-XL-induced platelet aggregation in a concentration-dependent manner"},
      {"measurement": "concentrations that significantly inhibit α-granule secretion", "setting": "[4]", "result": "≥ 25", "unit": "µM"},
      {"measurement": "concentrations with significantly more effects on fibrinogen binding than the respective concentrations of chrysin", "setting": "[5]", "result": "more than 25 μM"}
    ]}
  ]
}
